Assay results: the SangsterLogP compilation

Experiment: method code SF-AS, from PMID: 4480356

logP | Structure (SMILES)
2.96 | Oc1ccc(C(c2ccc(O)cc2)c2nccs2)cc1
2.61 | O=C(O)c1ccccc1C(c1ccc(O)cc1)c1ccc(O)cc1
2.84 | Oc1ccc(C(c2ccc(O)cc2)c2ccccn2)cc1
3.16 | Nc1ccccc1C(c1ccc(O)cc1)c1ccc(O)cc1
2.62 | Cc1cnc(Cc2ccc(O)cc2)s1
3.24 | Oc1ccc(C(c2ccncc2)c2ccc(O)cc2)cc1
3.27 | OCc1ccccc1C(c1ccc(O)cc1)c1ccc(O)cc1
3.13 | Oc1ccc(C(c2ccc(O)cc2)c2cccnc2)cc1
3.34 | Cc1cnc(C(c2ccc(O)cc2)c2ccc(O)cc2)s1

Structure (SMILES) | logP
Oc1ccc(Cc2ccc(O)cc2)cc1 | 2.91
